Measured values reported in US12077503B2, “Substituted cyclic amides and their use as herbicides” (FMC CORPORATION, priority 2015, dated 2024).

What was measured:
Format in all cases: in vivo
Kochia (Kochia scoparia) [1] = experiment: Test A preemergence; details: for Plant response rating, Kochia: 125 g ai/ha
Description: (§1) Seeds of plant species selected from barnyardgrass (Echinochloa crus-galli), Kochia (Kochia scoparia), ragweed (common ragweed, Ambrosia elatior), ryegrass, Italian (Italian ryegrass, Lolium multiflorum), crabgrass, large (Digitaria sanguinalis), giant foxtail (Setaria faberii), green foxtail (Setaria viridis), morningglory (Ipomoea spp.), pigweed (Amaranthus retroflexus), velvetleaf (Abutilon theophrasti), wheat (Triticum aestivum), and corn (Zea mays) were planted into a blend of loam soil and sand and treated preemergence with a directed soil spray using test chemicals formulated in anon-phytotoxic solvent mixture which included a surfactant.
(§2) At the same time, plants selected from these crop and weed species and also blackgrass (Alopecurus myosuroides), and Galium (catchweed bedstraw, Galium aparine) were planted in pots containing the same blend of loam soil and sand and treated with postemergence applications of test chemicals formulated in the same manner. Plants ranged in height from 2 to 10 cm and were in the one- to two-leaf stage for the postemergence treatment. Treated plants and untreated controls were maintained in a greenhouse for approximately 10 d, after which time all treated plants were compared to untreated controls and visually evaluated for injury. Plant response ratings, summarized in Table A, are based on a 0 to 100 scale where 0 is no effect and 100 is complete control. A dash (-) response means no test result.

[2] = test system: pigweed (Amaranthus retroflexus); experiment: Test A preemergence; details: for Plant response rating, Pigweed: 125 g ai/ha
Description: as §1, §2

[3] = test system: ragweed (common ragweed, Ambrosia elatior); experiment: Test A preemergence; details: for Plant response rating, Ragweed: 125 g ai/ha
Description: as §1, §2

[4] = test system: ryegrass, Italian (Italian ryegrass, Lolium multiflorum); experiment: Test A preemergence; details: for Plant response rating, Ryegrass, Italian: 125 g ai/ha
Description: as §1, §2

[5] = test system: barnyardgrass (Echinochloa crus-galli); experiment: Test A preemergence; details: for Plant response rating, Barnyardgrass: 125 g ai/ha
Description: as §1, §2

[6] = test system: giant foxtail (Setaria faberii); experiment: Test A preemergence; details: for Plant response rating, Foxtail, Giant: 125 g ai/ha
Description: as §1, §2

[7] = test system: sedge, umbrella (small-flower umbrella sedge, Cyperus difformis); experiment: Test B flooded paddy test; details: Flood, 250 g ai/ha; 0 to 100 scale where 0 is no effect and 100 is complete control; 13 to 15 d
Experimental: (§3) Plant species in the flooded paddy test selected from rice (Oryra sativa), sedge, umbrella (small-flower umbrella sedge, Cyperus difformis), ducksalad (Heteranthera limosa), and barnyardgrass (Echinochloa crus-galli) were grown to the 2-leaf stage for testing. At time of treatment, test pots were flooded to 3 cm above the soil surface, treated by application of test compounds directly to the paddy water, and then maintained at that water depth for the duration of the test. Treated plants and controls were maintained in a greenhouse for 13 to 15 d, after which time all species were compared to controls and visually evaluated. Plant response ratings, summarized in Table B, are based on a scale of 0 to 100 where 0 is no effect and 100 is complete control. A dash (-) response means no test result.

[8] = test system: barnyardgrass (Echinochloa crus-galli); experiment: Test B flooded paddy test; details: Flood, 250 g ai/ha; 0 to 100 scale where 0 is no effect and 100 is complete control; 13 to 15 d
Experimental: as §3

[9] = test system: ducksalad (Heteranthera limosa); experiment: Test B flooded paddy test; details: Flood, 250 g ai/ha; 0 to 100 scale where 0 is no effect and 100 is complete control; 13 to 15 d
Experimental: as §3

rice (Oryra sativa) = experiment: Test B flooded paddy test; details: Flood, 250 g ai/ha; 0 to 100 scale where 0 is no effect and 100 is complete control; 13 to 15 d
Experimental: as §3

Kochia (Kochia scoparia) [10] = experiment: Test A postemergence
Description: as §1, §2

[11] = test system: pigweed (Amaranthus retroflexus); experiment: Test A postemergence
Description: as §1, §2

[12] = test system: ragweed (common ragweed, Ambrosia elatior); experiment: Test A postemergence
Description: as §1, §2

[13] = test system: ryegrass, Italian (Italian ryegrass, Lolium multiflorum); experiment: Test A postemergence
Description: as §1, §2

[14] = test system: wheat (Triticum aestivum); experiment: Test A postemergence
Description: as §1, §2

[15] = test system: Galium (catchweed bedstraw, Galium aparine); experiment: Test A postemergence
Description: as §1, §2

[16] = test system: blackgrass (Alopecurus myosuroides); experiment: Test A postemergence
Description: as §1, §2

corn (Zea mays) = experiment: Test A postemergence
Description: as §1, §2

[17] = test system: barnyardgrass (Echinochloa crus-galli); experiment: Test A postemergence
Description: as §1, §2

[18] = test system: giant foxtail (Setaria faberii); experiment: Test A postemergence
Description: as §1, §2

[19] = preemergence, 0 to 100 scale (0 no effect, 100 complete control)
[20] = Preemergence, 500 g ai/ha, 0 is no effect, 100 is complete control
[21] = 500 g ai/ha, postemergence, 0 to 100 scale, 0 no effect, 100 complete control
[22] = Postemergence, 125 g ai/ha, visual injury, 0 to 100 scale (0 no effect, 100 complete control), approx. 10 d
[23] = Preemergence, visual injury after approximately 10 d, 0 to 100 scale where 0 is no effect and 100 is complete control
[24] = Preemergence, 500 g ai/ha, visual injury approx. 10 d
[25] = 125 g ai/ha, postemergence, visual injury rating on 0 to 100 scale (0 no effect, 100 complete control), approx. 10 d
[26] = Postemergence, 500 g ai/ha, 0 to 100 scale where 0 is no effect and 100 is complete control

O=C1NCC(c2ccccc2-c2ccccc2)C1C(=O)Nc1ccc(F)c(F)c1F (racemic) [Compound 382]
Plant response rating, Kochia (Kochia (Kochia scoparia) [1]; [19]): 0
Kochia plant response rating (0 to 100 scale) (Kochia (Kochia scoparia) [1]; [20]): 0
Plant response rating, Pigweed [2, 19]: 0
Pigweed plant response rating (0 to 100 scale) [2, 20]: 0
Plant response rating, Ragweed [3, 19]: 0
Ragweed plant response rating (0 to 100 scale) [3, 20]: 0
Plant response rating, Ryegrass, Italian [4, 19]: 0
Ryegrass, Italian plant response rating (0 to 100 scale) [4, 20]: 0
Plant response rating, Barnyardgrass [5, 19]: 0
Barnyardgrass plant response rating (0 to 100 scale) [5, 20]: 50
Plant response rating, Foxtail, Giant [6, 19]: 0
Foxtail, Giant plant response rating (0 to 100 scale) [6, 20]: 30
Plant response rating, Sedge, Umbrella [7]: 0
Plant response rating, Barnyardgrass [8]: 0
Plant response rating, Ducksalad [9]: 0
Plant response rating, Rice (rice (Oryra sativa)): 0
Plant response rating, Kochia (Kochia (Kochia scoparia) [10]; [21]): 0
Plant response rating, Kochia (Kochia (Kochia scoparia) [10]; [22]): 0
Plant response rating, Pigweed [11, 21]: 0
Plant response rating, Pigweed [11, 22]: 0
Plant response rating, Ragweed [12, 21]: 0
Plant response rating, Ragweed [12, 22]: 0
Plant response rating, Ryegrass, Italian [13, 21]: 0
Plant response rating, Ryegrass, Italian [13, 22]: 0
Plant response rating, Wheat [14, 21]: 0
Plant response rating, Wheat [14, 22]: 0
Plant response rating, Galium [15, 21]: 0
Plant response rating, Galium [15, 22]: 0
Plant response rating, Blackgrass [16, 21]: 0
Plant response rating, Blackgrass [16, 22]: 0
Plant response rating, Corn (corn (Zea mays); [21]): 0
Plant response rating, Corn (corn (Zea mays); [22]): 0
Plant response rating, Barnyardgrass [17, 21]: 20
Plant response rating, Barnyardgrass [17, 22]: 0
Plant response rating, Foxtail, Giant [18, 21]: 20
Plant response rating, Foxtail, Giant [18, 22]: 0

CC(C)c1ccc(C2CNC(=O)C2C(=O)Nc2ccccc2S(C)(=O)=O)cc1 (racemic) [Compound 500]
Plant response rating, Kochia (Kochia (Kochia scoparia) [1]; [23]): 50
Kochia plant response rating (0 to 100 scale, 0 is no effect, 100 is complete control) (Kochia (Kochia scoparia) [1]; [24]): 50
Plant response rating, Pigweed [2, 23]: 0
Pigweed plant response rating (0 to 100 scale, 0 is no effect, 100 is complete control) [2, 24]: 20
Plant response rating, Ragweed [3, 23]: 0
Ragweed plant response rating (0 to 100 scale, 0 is no effect, 100 is complete control) [3, 24]: 0
Plant response rating, Ryegrass, Italian [4, 23]: 0
Ryegrass, Italian plant response rating (0 to 100 scale, 0 is no effect, 100 is complete control) [4, 24]: 0
Plant response rating, Barnyardgrass [5, 23]: 0
Barnyardgrass plant response rating (0 to 100 scale, 0 is no effect, 100 is complete control) [5, 24]: 40
Plant response rating, Foxtail, Giant [6, 23]: 80
Foxtail, Giant plant response rating (0 to 100 scale, 0 is no effect, 100 is complete control) [6, 24]: 90
Plant response rating, Sedge, Umbrella [7]: 0
Plant response rating, Barnyardgrass [8]: 0
Plant response rating, Ducksalad [9]: 65
Plant response rating, Rice (rice (Oryra sativa)): 0
Kochia plant response rating (Kochia (Kochia scoparia) [10]; [25]): 0
Plant response rating, Kochia (Kochia (Kochia scoparia) [10]; [26]): 20
Pigweed plant response rating [11, 25]: 0
Plant response rating, Pigweed [11, 26]: 0
Ragweed plant response rating [12, 25]: 0
Plant response rating, Ragweed [12, 26]: 40
Ryegrass, Italian plant response rating [13, 25]: 0
Plant response rating, Ryegrass, Italian [13, 26]: 0
Wheat plant response rating [14, 25]: 0
Plant response rating, Wheat [14, 26]: 20
Galium plant response rating [15, 25]: 0
Plant response rating, Galium [15, 26]: 0
Blackgrass plant response rating [16, 25]: 0
Plant response rating, Blackgrass [16, 26]: 0
Corn plant response rating (corn (Zea mays); [25]): 0
Plant response rating, Corn (corn (Zea mays); [26]): 20
Barnyardgrass plant response rating [17, 25]: 0
Plant response rating, Barnyardgrass [17, 26]: 50
Foxtail, Giant plant response rating [18, 25]: 0
Plant response rating, Foxtail, Giant [18, 26]: 50
